Measured values published in patent US5677420A, “Phospholipase c-inhibiting peptides” (Kyowa Hakko Kogyo Co., Ltd., priority 1995, dated 1997).
In brackets after ≈: the same amount, converted by molar mass. Square brackets hold non-standard residues; d marks the D form. Peptide text beside a SMILES is read from it. Aun = NCCCCCCCCCCC(=O)O

Experiments:
[1] = system: Klebsiella pneumoniae ATCC 10031; assay: Antibacterial activity, agar dilution method; assay type: cell-based; settings: medium pH 7.0
Experimental: (§1) The antibacterial activity was determined by the agar dilution method using a medium (pH 7.0) which comprises 3 g/l Bacto-tryptone (Difco Laboratories), 1 g/l meat extract, 1 g/l glucose and 16 g/l agar.

[2] = system: Proteus vulgaris ATCC 6897; assay: Antibacterial activity, agar dilution method; assay type: cell-based; settings: medium pH 7.0
Experimental: as §1

PLC-γ1 = target: T1, PLC-γ1 (Bos taurus, UniProt P08487); assay: PLC-inhibiting activity (release of inositol phosphate from [3H]PIP2); assay type: biochemical; settings: Concentration 123 μM; PLC-γ1 from bovine thymus, 37° C., 10 minutes
T1 construct: A sample of PLC-γ1 was prepared from bovine thymus according to the method described in Y. Honma et al; from tissue; host or cells: bovine thymus
T1 sequence (P08487 1-1291): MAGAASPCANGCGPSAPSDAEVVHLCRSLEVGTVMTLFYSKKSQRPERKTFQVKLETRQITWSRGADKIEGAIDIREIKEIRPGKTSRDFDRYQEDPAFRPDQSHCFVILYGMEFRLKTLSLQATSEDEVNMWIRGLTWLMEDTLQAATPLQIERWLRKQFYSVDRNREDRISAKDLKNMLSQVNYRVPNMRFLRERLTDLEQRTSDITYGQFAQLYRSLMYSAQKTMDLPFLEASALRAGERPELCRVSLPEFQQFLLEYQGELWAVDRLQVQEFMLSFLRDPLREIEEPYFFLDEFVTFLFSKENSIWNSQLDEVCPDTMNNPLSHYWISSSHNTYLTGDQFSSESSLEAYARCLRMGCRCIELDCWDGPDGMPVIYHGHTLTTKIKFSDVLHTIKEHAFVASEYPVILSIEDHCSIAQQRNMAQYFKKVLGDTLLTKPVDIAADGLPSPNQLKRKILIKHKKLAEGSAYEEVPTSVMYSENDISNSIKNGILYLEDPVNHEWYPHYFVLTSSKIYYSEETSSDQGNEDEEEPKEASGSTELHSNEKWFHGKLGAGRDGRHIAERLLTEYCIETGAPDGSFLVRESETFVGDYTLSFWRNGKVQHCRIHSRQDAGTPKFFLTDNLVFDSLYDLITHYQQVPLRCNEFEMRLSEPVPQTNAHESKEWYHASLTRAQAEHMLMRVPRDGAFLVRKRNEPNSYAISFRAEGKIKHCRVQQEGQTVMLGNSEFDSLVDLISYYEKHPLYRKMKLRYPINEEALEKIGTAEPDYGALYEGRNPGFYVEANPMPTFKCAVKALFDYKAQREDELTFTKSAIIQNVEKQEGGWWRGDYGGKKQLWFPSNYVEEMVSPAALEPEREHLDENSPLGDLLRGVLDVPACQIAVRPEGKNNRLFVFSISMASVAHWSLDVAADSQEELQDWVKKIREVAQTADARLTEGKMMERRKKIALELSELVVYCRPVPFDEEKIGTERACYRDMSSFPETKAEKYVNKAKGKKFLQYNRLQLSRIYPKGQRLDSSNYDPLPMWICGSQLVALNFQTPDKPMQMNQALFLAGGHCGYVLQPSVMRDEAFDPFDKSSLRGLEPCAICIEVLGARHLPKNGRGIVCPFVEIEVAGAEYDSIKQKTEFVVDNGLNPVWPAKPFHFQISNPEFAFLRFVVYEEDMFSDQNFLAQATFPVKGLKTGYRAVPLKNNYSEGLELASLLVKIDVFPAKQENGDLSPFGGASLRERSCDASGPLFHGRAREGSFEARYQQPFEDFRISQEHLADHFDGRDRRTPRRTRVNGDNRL
Experimental: PLC-inhibiting activity A sample of PLC-γ1 was prepared from bovine thymus according to the method described in Y. Honma et al., Biochem. J., 269, 13 (1990). A solution having the composition shown in Table 2 below was prepared on ice and was heated to 37° C. to start reaction. After incubation for 10 minutes, 2 ml of a chloroform/methanol mixture (2:1, v/v) was added thereto to stop the reaction. The resulting inositol phosphate was extracted with 0.5 ml of 1N hydrochloric acid. The extract was separated into two liquid phases by centrifugation (2000×g, 3 minutes), and the amount of ^3 H contained in the supernatant (0.7 ml) was measured with a scintillation counter. […] (a) 2-(N-Morpholino)ethanesulfonic acid (b) The peptides and their concentrations in aqueous solutions provided for the test are shown in Table 3. […] The inhibition rate (X) was calculated according to the following equation: X (%)=(A-C)/(B-C)×100 where A is the obtained value of specific radioactivity, B is the value of specific radioactivity obtained when the same amount of water was added instead of the aqueous solution of the test peptide, and C is the value of specific radioactivity obtained when the same amount of water was added instead of the sample and the aqueous solution of the test peptide.

[3] = system: Pseudomonas aeruginosa Bin H No. 1; assay: Antibacterial activity, agar dilution method; assay type: cell-based; settings: medium pH 7.0
Experimental: as §1

[4] = system: Bacillus subtilis No. 10707; assay: Antibacterial activity, agar dilution method; assay type: cell-based; settings: medium pH 7.0
Experimental: as §1

KMS-4 cells = assay: Cell growth-inhibiting activity (BrdU incorporation, cell growth detection kit); assay type: cell-based; settings: Concentration 1 μM, culturing with peptide for 17 hours
Experimental: Cell growth-inhibiting activity The cell growth-inhibiting activity was determined using a cell growth detection kit (Amersham) in the following manner. KMS-4 cells [M. Nanba et al, International Journal of Cancer, 32, 697 (1983)]were suspended in DMEM medium (Nissui Pharmaceutical Co., Ltd.) containing 10% fetal calf serum at a density of 1-2×10^4 cells/ml, and 1 ml of the cell suspension was put into each well of a 24-well plate (Corning Inc.). The cells were cultured in a CO2 incubator (37° C., 5% CO2) for 2 days. Then, the medium was replaced with a fresh DMEM medium containing 10% fetal calf serum, and the test peptide was added thereto, followed by culturing for 17 hours. […] The number of cells which incorporated BrdU and the total number of cells within one field of vision of a microscope (approximately 200 cells) were determined, and the proportion (%) of stained cells per field of vision was calculated. […] The cell growth-inhibiting activity was calculated in the following manner. That is, the cell growth inhibition rate was calculated according to the following equation: X (%)=(1-B/A)×100 where A is the growth activity when no peptide was added, and B is the growth activity when the test peptide was added.

Row | Molecule | MIC (μg/ml) KP [1] [µg/mL] | MIC (μg/ml) PV [2] [µg/mL] | Inhibition rate (%) (PLC-γ1) | MIC (μg/ml) PA [3] [µg/mL] | MIC (μg/ml) BS [4] [µg/mL] | Inhibition rate (%) (cell growth) (KMS-4 cells)
1 | CSCC[C@H](NC(=O)[C@H](CCCCN)NC(=O)[C@H](CCCNC(=N)N)NC(=O)[C@H](Cc1ccc(O)cc1)NC(=O)[C@H](CC(C)C)NC(C)=O)C(=O)N[C@@H](CCCNC(=N)N)C(=O)N[C@@H](CC(C)C)C(=O)N[C@@H](CCCNC(=N)N)C(=O)N[C@@H](Cc1ccc(O)cc1)C(=O)N1CCC[C@H]1C(=O)N[C@H](C(=O)NCCCCCCCCCCC(N)=O)C(C)C [Compound (I-6), Ac-Leu-Tyr-Arg-Lys-Met-Arg-Leu-Arg-Tyr-Pro-Val-Aud-NH2] (Ac-LYRKMRLRYPV[Aun]-NH2) | 43 (≈ 25 µM) |  |  |  |  | 
2 | Ac-Leu-Tyr-Arg-Lys-Met-Arg-Leu-Arg-Tyr-Pro-Val-Abu-NH2 (Ac-LYRKMRLRYPVX-NH2; not fully specified (residue 12); printed as $CH_3CO$—Leu—Tyr—Arg—Lys—Met—Arg—Leu—Arg—Tyr—Pro—Val—NH—$(CH_2)_3CONH_2$) [Compound (I-1)] |  | 83 | 85 | 167 | 167 | 10
